Measured values as given in patent EP0575844B1, “Hydroxamic acid derivatives and pharmaceutical compositions thereof” (F. HOFFMANN-LA ROCHE AG, priority 1992, dated 1993).
Like-named read-outs stand apart in the source and are kept apart here.

Assays:
[1] = molecular target: T1, Stromelysin (Homo sapiens, UniProt P08254); test: Stromelysin (Test A), 14C-acetylated b-casein substrate digestion; type: biochemical; conditions: read-out: Test A IC50 (mol)
Description: Prostromelysin was purified from human fibroblast culture medium by prostromelysin antibody affinity chromatography [Ganja-Smith Z, Nagase H, Woessner J F Jr., Biochem J. 1989, vol 285 (1), pp 115-119]. The latent pro-enzyme was activated by incubation with trypsin (5 mg/ml) at 25°C for 2 hours and after this time the trypsin was inactivated using a ten-fold excess of soya bean trypsin inhibitor. The inhibitory activity of the aforementioned hydroxamic acid derivatives was determined using ^14C-acetylated b-casein substrate. The stromelysin (5 nM) was added to a solution of substrate (4 mg/ml) in 25 mM Tris HCl buffer, pH 7.5, containing 10 mM CaCl2 and 0.05% Brij®. The solution obtained was incubated at 37°C for 20 hours. Enzyme digestion of the substrate was terminated by the addition of 45% trichloroacetic acid and the precipitated undigested substrate was pelleted by centrifugation at 10000 g for 0.25 hour. The supernatant was aspired and ^14C activity was determined by liquid scintillation spectrometry. The IC50 is that concentration of hydroxamic acid derivative in the enzyme digestion which reduces the substrate cleavage to 50% of that achieved by the enzyme alone.

[2] = molecular target: T1, Stromelysin; test: biochemical
Description: The latent pro-enzyme (30 µg/ml) was activated by incubation with trypsin (0.5 µg/ml) for 30 minutes at 25°C and then the trypsin was inactivated using a twenty-fold excess of trypsin inhibitor. The inhibitory activity of the hydroxamic acid derivatives was determined using the fluorescent peptide substrate (7-methoxycoumarin-4-yl)acetyl-L-prolyl-L-leucyl-L-alanyl-L-[…]-[3-(2,4-dinitrophenyl)-L-2,3-diaminopropyl]-L-arginyl-L-arginine. The stromelysin (final concentration 35 ng/ml) was added to a solution of substrate ([…]) and varying concentrations of hydroxylamine derivative in 50mM Tris HCl buffer, pH 7.5 containing 200 mM Na Cl, 10mM CaCl2, 0.05% Brij 35 and 5% methanol. This solution was incubated for 16 hours at 37°C. Product formation was determined by spectrofluorometry using an excitation wavelength of 325 nm and an emission wavelength of 395 nm. The IC50 is that concentration of hydroxylamine derivative which reduces the substrate cleavage to 50% of that achieved by the enzyme alone.

[3] = molecular target: gelatinase B (Homo sapiens, UniProt P14780); test: biochemical
gelatinase B, sequence (P14780 94-707): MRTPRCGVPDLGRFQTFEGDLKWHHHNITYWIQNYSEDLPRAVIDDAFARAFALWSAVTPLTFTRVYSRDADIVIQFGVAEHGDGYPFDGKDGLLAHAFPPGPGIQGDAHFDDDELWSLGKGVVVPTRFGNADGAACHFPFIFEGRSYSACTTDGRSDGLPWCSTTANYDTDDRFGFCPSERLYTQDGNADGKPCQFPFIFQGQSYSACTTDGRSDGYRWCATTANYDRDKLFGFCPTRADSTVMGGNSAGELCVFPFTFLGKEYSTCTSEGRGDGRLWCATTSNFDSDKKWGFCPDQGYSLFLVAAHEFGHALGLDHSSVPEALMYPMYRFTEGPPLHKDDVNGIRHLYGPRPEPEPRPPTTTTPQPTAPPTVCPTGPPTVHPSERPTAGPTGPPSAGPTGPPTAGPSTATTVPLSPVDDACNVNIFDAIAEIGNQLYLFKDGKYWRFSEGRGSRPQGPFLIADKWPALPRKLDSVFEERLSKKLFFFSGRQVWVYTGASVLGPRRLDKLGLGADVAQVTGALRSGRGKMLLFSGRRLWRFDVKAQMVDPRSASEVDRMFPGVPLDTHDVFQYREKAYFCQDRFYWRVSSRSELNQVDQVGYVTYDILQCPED
Description: Pro-gelatinase B was purified from human neutrophils by first separating the neutrophils from human blood by density centrifugation and dextran sedimentation. The separated neutrophils were disrupted by combined treatment with 0.05% Triton X-100® and sonification Cell debris was then removed by high speed centrifugation. […] The gelatinase B was incubated overnight at 37°C with 1mM p-aminophenylmercuric acetate. The inhibitory activity of the present hydroxamine derivatives was determined using the synthetic substrate N-acetyl-Pro-Gln-Gly-Leu-Leu-Gly ethyl ester for this enzyme. The gelatinase was added to a solution of 0.25 mM of substrate in 50mM borate buffer (pH 7.5) containing 1 mM calcium chloride and a known concentration of hydroxylamine derivative. The resulting solution was incubated at 37°C for 16 hours. Enzymic activity was terminated by addition of an equal volume of 2% (w/v) sodium hydrogen carbonate solution in 50% aqueous methanol containing 0.05% (w/v) of picrylsulphonic acid. The solution obtained was incubated at 37°C for a further 1 hour and the reaction was then terminated and stabilized by acidification with 1N hydrochloric acid. The concentration of trinitrophenyl-Leu-Leu-Gly ethyl ester formed was determined by spectrophotometry at 335 nm. The IC50 is that concentration of hydroxylamine derivative which reduces substrate cleavage to 50% of that achieved by the enzyme alone.

[4] = gelatinase B from human neutrophils, 0.25 mM substrate, pH 7.5, 37°C, 16 hours, * = IC50 limited by mutual depletion of the enzyme, read-out: Test C IC50 (mol)

T1 sequence (P08254 100-477): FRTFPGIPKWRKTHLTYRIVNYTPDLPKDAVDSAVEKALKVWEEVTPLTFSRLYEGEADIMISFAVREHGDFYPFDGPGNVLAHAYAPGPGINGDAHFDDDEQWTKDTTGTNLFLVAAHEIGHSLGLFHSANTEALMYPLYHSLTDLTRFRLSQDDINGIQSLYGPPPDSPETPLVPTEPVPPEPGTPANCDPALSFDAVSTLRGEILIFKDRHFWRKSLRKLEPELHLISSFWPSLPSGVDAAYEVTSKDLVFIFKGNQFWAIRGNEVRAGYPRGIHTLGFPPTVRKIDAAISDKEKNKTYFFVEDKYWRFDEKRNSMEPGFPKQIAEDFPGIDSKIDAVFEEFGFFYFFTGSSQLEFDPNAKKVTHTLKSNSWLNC

| IC50 ([2]; stromelysin 35 ng/ml, fluorescent peptide substrate, pH 7.5, 37°C, 16 hours, * = IC50 limited by mutual depletion of the enzyme, read-out: Test B IC50 (mol)) | SMILES | IC50 [1] | IC50 [2] | IC50 [3, 4] | IC50 [3] |
| --- | --- | --- | --- | --- | --- |
|  | CCCCCCCC(C(=O)N[C@@H](CC(C)C)C(=O)N[C@@H](CC(C)C)C(=O)NCC)[C@H](C)C(=O)NO (single isomer, unassigned) [Compound C, [4-(N-Hydroxyamino)-2(R or S)-heptyl-3(S)-methylsuccinyl]-L-leucyl-L-leucine ethylamide] | 11 nM | 2.3 nM |  |  |
|  | CCCCCCCC(CC(=O)NO)C(=O)N[C@@H](Cc1ccccc1)C(=O)NC (stereo partly drawn) [Compound F, [4-(N-Hydroxyamino)-2(RS)-heptylsuccinyl]-L-phenylalanine methylamide] |  | 22 nM | 3.2 nM |  |
|  | CCCCCCC[C@@H](C(=O)N[C@@H](CC(C)C)C(=O)N[C@@H](CC(C)C)C(=O)NCC)C(CN1C(=O)c2ccccc2C1=O)C(=O)NO (single isomer, unassigned) [Compound D, [4-(N-Hydroxyamino)-2(R)-heptyl-3(R or S)-(phthalimidomethyl)succinyl]-L-leucyl-L-leucine ethylamide] | 10 nM | 0.59 nM |  |  |
|  | CCCCCCCCCC(CC(=O)NO)C(=O)N[C@@H](CC(C)C)C(=O)N[C@@H](CC(C)C)C(=O)NCC (single isomer, unassigned) [Compound B, [4-(N-Hydroxyamino)-2(R or S)-nonylsuccinyl]-L-leucyl-L-leucine ethylamide] | 26 nM | 9.3 nM |  | 50 nM |
| 1.2 nM | CCCCCCC[C@@H](C(=O)N[C@H](C(=O)NC)C(C)(C)C)C(CN1C(=O)c2ccccc2C1=O)C(=O)NO (single isomer, unassigned) [Compound G, [4-(N-Hydroxyamino)-2(R)-heptyl-3(R or S)-(phthalimidomethyl)succinyl]-L-tert-butylglycine methylamide] |  |  | 0.9 nM |  |
|  | CCCCCCCC(CC(=O)NO)C(=O)N[C@@H](CC(C)C)C(=O)N[C@@H](CC(C)C)C(=O)NCC (single isomer, unassigned) [Compound A, [4-(N-Hydroxyamino)-2(R or S)-heptylsuccinyl]-L-leucyl-L-leucine ethylamide] | 33 nM | 12.5 nM |  | 320 nM |
|  | CCCCCCC[C@@H](C(=O)N[C@@H](CC(C)C)C(=O)N[C@@H](CC(C)C)C(=O)NCC)C(CCCc1ccccc1)C(=O)NO (single isomer, unassigned) [Compound H, [4-(N-Hydroxyamino) 2(R)-heptyl-3(R or S)-(3-phenylpropyl)succinyl]-L-leucyl-L-leucine ethylamide] |  | 0.66 nM |  |  |
